Data as given in patent US20230355500A1, “TOPICAL COMPOSITION” (LILIGER LTD, priority 2021, published 2023).

Tests used:
[1] = system: stratum corneum; conditions: patients with atopic dermatitis, topical treatment; cited from earlier work
[2] = system: skin; experiment: Concentration needed for skin effect, judged by redness, swelling, tingling and burning sensation; format: in vivo, human
Description: The concentration of the NO-donor in the topical composition of the present invention is determined by the amount that is sufficient to elevate the level of NO in the skin, upon topical application of the composition. Since measuring NO levels in humans is impractical, such elevation can be observed by the appearance of skin redness (erythema), swelling (oedema) a tingling sensation and a burning sensation, which is intensified as the concentration goes up. Furthermore, the occurrence of elevated NO can be noticed by its desirable cosmetic outcomes such as enhanced radiance and reduction of wrinkles.
For example, in the case of nitroglycerine, 2% is insufficient. At higher concentrations, from about 4%, a slight burning sensation is noticed. This sensation intensifies as the nitroglycerine concentration increases. Thus, in certain embodiments, the concentration of nitroglycerine as NO-donor is between about 4% - about 12%; and in other embodiments it can be from about 4%-8%, or from about 8%-12%.
In the case of arginine, 5% is insufficient. At higher concentrations, from about 6%, a slight burning sensation is noticed, and it is associated with a tingling sensation. This sensation intensifies as the arginine concentration increases. Thus, in certain embodiments, the concentration of arginine as NO-donor is at least about 6%. For example, between about 6% and about 25%. In other embodiments, the concentration of arginine can be from about 6% to about 8%, or from about 8% to about 10%, or from about 10% to about 14%, or from about 14% to about 18%, or from about 18% to about 25%, or from about 8% to about 25%, or from about 6% to about 12%, or from about 8% to about 12%, or from about 8% to about 10%.
The concentration of the counter-NO agent is determined so that the skin redness (erythema), swelling (oedema) and burning sensation, induced by the NO-donor is decreased or eliminated. For example, in certain cases, where the counter-NO agent is nicotinamide, 0.5% is insufficient. […]

[3] = system: ageing skin; experiment: Treatment of ageing skin, study #2: day cream used for 28 days, unguided free-form feedback; format: in vivo, human; conditions: addition of nicotinamide to the arginine cream
Excerpt: Objectives: To determine the impact of Composition #1 on middle-aged women after 28 days of continuous use. […] They were asked to use the cream daily for 28 days and to provide unguided input (free form) Results: 13 of the 20 women provided feedback that was summarized in the table below.

In the case of `Cl.N=C(N)NCCC[C@H](N)C(=O)O` [arginine hydrochloride], the “Clinical symptoms of dry skin” value [1] is given as “improvement”, the Skin moisture [1] is given as “increase” and the “Urea in the stratum corneum” value [1] is given as “significantly increase”.

In the case of `N=C(N)NCCC[C@H](N)C(=O)O` [arginine, L-arginine], the “Sufficiency of the concentration as NO-donor” value ([2]; 5% in the topical composition) is reported as “insufficient” and the “Concentration from which a slight burning sensation is noticed” value ([2]; human, in vivo) is reported as “at least 6%”.

In the case of `NC(=O)c1cccnc1` [nicotinamide], the “Previous issues (Study #1) of burning sensation and over-tingling” value [3] is reported as “solved” and the “Sufficiency of the concentration as counter-NO agent (to decrease redness, swelling and burning sensation)” value ([2]; 0.5% in the topical composition, in certain cases) is reported as “insufficient”.
